Test results: US20080176339A1, “NEUTRAL LABELING REACTANTS AND CONJUGATES DERIVED THEREOF” (WALLAC OY, priority 2006, published 2008)

Key:
antiserum = assay: Performance of thyroxine tracers in DELFIA based T4-assay compared to AutoDELFIA Neonatal T4 kit; details: up to one week in instrument-like conditions
Experimental: The assay concentrations of the antiserum were optimized for each tracer individually, and the analytical sensitivities of the optimized standard curves were defined. The correlation between the methods were studied with a small sample panel. The on-board stability was tested up to one week in instrument-like conditions. Sensitivity to the interference of EDTA-containing samples was also studied.

[1] = in vivo; cited from earlier work
[2] = Stabilities of chelates in DELFIA Enhancement Solution and DELFIA Inducer (dissociation of europium followed by time-resolved fluorometer); format: physicochemical; details: RT (25° C.)
Experimental: The chelates (ca 1 mg) were dissolved either in Inducer or Enhanchement Solution. The dissociation of the europium at 25° C. were followed using a time-resolved fluorometer. The results are shown below

Compound: O=C(O)CN(CCN(CC(=O)O)CC(Cc1ccc(NC(=S)NCCCCCC(=O)NC(Cc2cc(I)c(Oc3cc(I)c(O)c(I)c3)c(I)c2)C(=O)O)cc1)N(CC(=O)O)CC(=O)O)CC(=O)O (centres unmarked) [Compound T4-DTPA]
- On board stability (antiserum): Better

Compound: NC(=O)CN(CCN(CC(=O)O)CC(Cc1ccc(NC(=S)NCCCCCC(=O)NC(Cc2cc(I)c(Oc3cc(I)c(O)c(I)c3)c(I)c2)C(=O)O)cc1)N(CC(N)=O)CC(=O)O)CC(=O)O (centres unmarked) [Compound 13]
- On board stability (antiserum): Better

Compound: O=C([O-])CN(CCN(CC(=O)[O-])CC(=O)O)CCN(CC(=O)[O-])CC(=O)O.[Gd+3] [Gd-DTPA]
- Crossing of intact blood-brain barrier [1]: does not cross an intact blood-brain barrier

Compound: Europium Chelate of 2-(4-aminobenzyl)-1,7-bis(aminocarbonylmethyl)-1,4,7-tris(carboxymethyl)-1,4,7-triazaheptane [Compound 10]
- Approximate time needed for complete dissociation, Enhancer ([2]; DELFIA Enhancement Solution): 30 min
- Approximate time needed for complete dissociation, Inducer ([2]; DELFIA Inducer): <5 min
